Earlier results on one compound are cited in US20120177729A1, “SUSTAINED RELEASE COMPOSITION OF RANOLAZINE” (Lupin Limited, priority 2009, published 2012).

The conditions of series [1]: in vivo.

As to `COc1ccccc1OCC(O)CN1CCN(CC(=O)Nc2c(C)cccc2C)CC1` (racemic) [Ranolazine, (±)-N-(2,6-dimethylphenyl)-4-[2-hydroxy-3-(2-methoxyphenoxy)propyl]-1-piperazine-acetamide], the Solubility entry (low pH that occurs in the stomach) is reported as “relatively high”. Also, the “Solubility in aqueous solutions” value (pH above about 6.5) is listed as “relatively insoluble”. Further, in series [1], the Plasma half-life result is listed as “relatively short”.
